pEC50: −log10 of the molar value.
Tests used:
Type in all cases: biochemical
[1] = molecular target: T1, 11β-HSD1 (Homo sapiens, UniProt P28845); assay: Human enzymatic activity of 11β-HSD1 from liver microsomes, [3H]cortisone to [3H]cortisol conversion, SPA (inhibition % or EC50); conditions: for inhibition at 1 µM: 10^−6M inhibitor, read-out: 11β-HSD1/SPA % inhib. (10^−6M)
T1 construct: adding 1 μg of human hepatic microsome (Xenotech); tissue Xenotech; host or cells: human liver microsomes
Protocol: The enzymatic test is based on the conversion of [^3H] cortisone into [^3H] cortisol by 11β-HSD1. […] The sealed plates are centrifuged at low speed for mixing the components and then incubated for 2 hours at 37° C. (enzymatic phase). The enzymatic reaction is stopped by adding 70 μl/well of complex [10 mg/mL of yttrium silicate SPA beads associated with the protein A (GE Healthcare) and pre-incubated with an anti-cortisol monoclonal antibody (East Coast Biologics, ME)] containing 10 μM of 18β-glycerrhitinic acid. The plates are sealed and then incubated under slow orbital stirring for 2 hours at room temperature (detection phase).

[2] = molecular target: T1, 11β-HSD1; assay: Human enzymatic activity of 11β-HSD1 from liver microsomes, cortisone to cortisol conversion, HTRF detection (inhibition %); conditions: 10^−6M inhibitor, read-out: 11β-HSD1/HTRF % inhib. (10^−6M)
Protocol: 1) Human Enzymatic Activity of 11β-HSD1 from Liver Microsomes after Treatment with Inhibitor Compounds (Inhibition %).
The enzymatic test is based on the conversion of cortisone into cortisol by 11β-HSD1. […] A calibration curve of known cortisol concentrations is produced simultaneously under the same experimental conditions. The plates are incubated for 2 hours at 37° C. (enzymatic phase). By adding 25 μL of conjugate cortisol-d2 and of 25 μL of anti-cortisol anαtibody labeled with Eu^3+ cryptate per well, the enzymatic reaction may be stopped and after incubation of 2 hours at room temperature the formed cortisol (detection phase) may be quantified by HTRF® (CIS bio international, reference 62CO2PEC). The fluorescence measurements are conducted with a Fusion™ α(Perkin Elmer) reader. For each well, fluorescence is measured at 620 nm and at 665 nm. A ratio (λ665 nm/λ620 nm) and a specific FRET signal are calculated, with which an inhibition percentage may be determined for each concentration of evaluated inhibitor compound.

[3] = molecular target: T2, 11β-HSD2 (Homo sapiens, UniProt P80365); assay: Human enzymatic activity of 11β-HSD2 from kidney microsomes, [3H]cortisol to [3H]cortisone conversion, SPA (inhibition %); conditions: 10^−5M inhibitor, read-out: 11β-HSD2/SPA % inhib. (10^−5M)
T2 construct: of human kidney microsomes (Xenotech); tissue Xenotech; host or cells: human kidney microsomes
T2 sequence (P80365 1-405): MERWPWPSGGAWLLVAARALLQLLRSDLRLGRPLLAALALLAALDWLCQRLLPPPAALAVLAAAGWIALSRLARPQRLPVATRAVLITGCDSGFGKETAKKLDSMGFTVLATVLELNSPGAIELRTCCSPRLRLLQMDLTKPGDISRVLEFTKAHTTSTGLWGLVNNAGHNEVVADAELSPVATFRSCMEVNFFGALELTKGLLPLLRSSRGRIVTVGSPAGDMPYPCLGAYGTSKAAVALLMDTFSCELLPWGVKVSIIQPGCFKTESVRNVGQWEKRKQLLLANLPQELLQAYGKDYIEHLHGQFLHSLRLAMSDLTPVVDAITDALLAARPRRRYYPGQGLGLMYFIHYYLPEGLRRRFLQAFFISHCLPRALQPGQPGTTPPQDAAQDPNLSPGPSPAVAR
Protocol: 3) Human Enzymatic Activity of 11β-HSD2 from Kidney Microsomes after Treatment with the Inhibitor Compounds (Inhibition %).
The enzymatic test is based on the conversion of [^3H] cortisol into [^3H] cortisone by 11β-HSD2. The enzymatic reaction is started by adding 0.75 μg (standardization of this amount in order to obtain 80% of the conversion maximum of the substrate under the experimental conditions) of human kidney microsomes (Xenotech) to wells (Optiplate™ 96-well plates, a reaction volume of 50 μL) containing 8 nM [1,2,6,7-^3H] cortisol (specific activity of 70-75 Ci/mmol, Amersham-GE Healthcare) in a 50 mM HEPES buffer (pH 7.4) with 100 mM KCl, 5 mM NaCl, 2 mM MgCl2, 1 mM NAD^+ and the inhibitor compound or the carrier (1% DMSO). The sealed plates are centrifuged at low speed in order to mix the components and then incubated for 2 hours at 37° C. (enzymatic phase). The enzymatic reaction is stopped by adding 70 μl/well of complex [10 mg/mL of yttrium silicate SPA beads associated with protein A (GE Healthcare) and pre-incubated with an anti-cortisol monoclonal antibody (East Coast Biologics, ME)] containing 10 μM of 18β-glycerrhitinic acid. The plates are sealed and then incubated under slow orbital stirring for 2 hours at room temperature (detection phase). After centrifugation, the measurements are conducted with a scintillation counter TopCount NXT (Perkin Elmer). An inhibition percentage for each evaluated compound concentration is calculated relatively to the standard enzymatic activity (carrier 1% DMSO).

T1 sequence (P28845 whole entry): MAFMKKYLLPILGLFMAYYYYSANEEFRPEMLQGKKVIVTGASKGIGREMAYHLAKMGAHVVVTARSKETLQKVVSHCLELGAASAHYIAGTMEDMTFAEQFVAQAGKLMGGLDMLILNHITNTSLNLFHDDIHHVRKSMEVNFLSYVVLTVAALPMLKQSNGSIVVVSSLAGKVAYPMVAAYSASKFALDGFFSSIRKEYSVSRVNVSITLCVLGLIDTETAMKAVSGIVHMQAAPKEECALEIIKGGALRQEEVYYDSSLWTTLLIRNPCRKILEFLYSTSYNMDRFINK

Compound | pEC50 [1] | inhibition at 1 µM [1] [%] | inhibition at 1 µM [2] [%] | inhibition at 10 µM [3] [%]
CN1C(C(=O)c2ccc3ccccc3c2)=C(O)c2ccccc2S1(=O)=O [Example 1, (4-Hydroxy-2-methyl-1,1-dioxo-2H-benzo[e][1,2]thiazin-3-yl)(naphthalen-2-yl)methanone] | 7.80 | 97 | 99 | 42
Cc1ccc(C(=O)C2=C(O)c3ccccc3S(=O)(=O)N2C)cc1 [Example 3, (4-hydroxy-2-methyl-2H-1,1-dioxo-benzo[e][1,2]thiazin-3-yl) (4-methylphenyl)methanone] | 7.19 | 93 | 99 | 33
CCN1C(C(=O)c2ccc3ccccc3c2)=C(O)c2ccccc2S1(=O)=O [Example 9, (4-hydroxy-2-ethyl-1,1-dioxo-2H-benzo[e][1,2]thiazin-3-yl)(naphthalen-2-yl)methanone] | 7.22 | 88 | 98 | 5
CN1C(C(=O)c2ccc3ccccc3c2)=C(O)c2ccc(F)cc2S1(=O)=O [Example 17, (7-Fluoro-4-hydroxy-2-methyl-1,1-dioxo-2H-benzo[e][1,2]thiazin-3-yl)(naphthalen-2-yl)methanone] | 7.96 | 99 | 100 | 61
CCN1C(C(=O)c2ccc3ccccc3c2)=C(O)c2ccc(F)cc2S1(=O)=O [Example 18, (7-Fluoro-4-hydroxy-2-ethyl-1,1-dioxo-2H-benzo[e][1,2]thiazin-3-yl)(naphthalen-2-yl)methanone] | 7.16 | 91 | 100 | 25

Further lines, results first:

pEC50 [1] | inhibition at 1 µM [1] [%] | inhibition at 1 µM [2] [%] | inhibition at 10 µM [3] [%] | Compound
7.14 | 91 | 100 | 63 | CC(=O)OC1=C(C(=O)c2ccc3ccccc3c2)N(C)S(=O)(=O)c2ccccc21 [Example 46, Acetic acid 2-methyl-3-(naphthalene-2-carbonyl)-1,1-dioxo-2H-benzo[e][1,2]thiazin-4-yl ester]
7.57 | 97 | 100 | 71 | CN1C(C(=O)c2ccc3ccccc3c2)=C(OC(=O)COc2ccccc2)c2ccccc2S1(=O)=O [Example 54, Phenoxyacetic acid 2-methyl-3-(naphthalene-2-ylcarbonyl)-1,1-dioxo-2H-benzo[e][1,2]thiazin-4-yl ester]
7.37 | 93 | 100 | 31 | CN1C(C(=O)c2ccc(Cl)c(Cl)c2)=C(O)c2ccccc2S1(=O)=O [Example 123, (4-hydroxy-2-methyl-1,1-dioxo-2H-benzo[e][1,2]thiazin-3-yl) (3,4-dichlorophenyl)methanone]
7.68 | 87 | 100 |  | CN1C(C(=O)c2cccc(Br)c2)=C(O)c2ccccc2S1(=O)=O [Example 142, (3-Bromo-phenyl)-(4-hydroxy-2-methyl-1,1-dioxo-1,2-dihydro-2H-benzo[e][1,2]thiazin-3-yl)-methanone]

— patent US9187438B2, “Derivatives of benzothiazines, preparation thereof and application thereof as drugs” (PIERRE FABRE MEDICAMENT, priority 2009, dated 2015)
